Holding throughout (format): in vivo
One test deals with Trichostrongylus axei. The test can be described thus: Effect test for Trichostrongylus axei. Also on record: concentration or dose not given beside the values. The note with it: test chemical solution B added to eggs in 96-well plate, unhatched eggs and inactive larvae counted 4 days after addition, 25°C, relative to untreated plot. On the procedure:
Agar medium with 1% potato dextrose was aliquoted into 60-µl portions in a 96-well plate, and 30 µl of sterilized water containing Trichostrongylus axei eggs and a freeze-dried Escherichia coli OP50 strain (five eggs, 10 µg/10 µl Escherichia coli) was added to each well. From above, 10 µl of test chemical solution B of the presently invented compound was added to each well, and the plate was left to stand under dark conditions at 25°C.

In test [1] the test system is western flower thrips (Frankliniella occidentalis). The test can be described thus: Insecticidal activity against western flower thrips. The note with it: Frankliniella occidentalis, 48 h; 500 ppm chemical solution sprinkled (2.5 mg/cm^2), larvae on common bean leaf, after 2 days; read-out: death rate. In short, it runs like this: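 Bean leaf squares on wet filter paper inoculated with 20 larvae. Compound emulsion diluted with spreader-containing water to 500 ppm and sprayed at 2.5 mg/cm^2 by rotary tower. Run in duplicate.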

Test [2] deals with diamondback moths (Plutella xylostella). The test can be described thus: Insecticidal test for diamondback moths. The note with it: Plutella xylostella, 144 h; 500 ppm chemical solution, leaves soaked, third-instar larvae, six days, 25°C; read-out: death rate. In short, it runs like this: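 Leaves dipped about 10 s in a 500 ppm aqueous dilution of an emulsion formulation with spreader, then air-dried. Five third-instar larvae released per dish and held at 25 °C. Tested in duplicate.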

Test [3] has as its system brown rice planthoppers (Nilaparvata lugens). Nature of the test: Insecticidal test for brown rice planthoppers. The note with it: Nilaparvata lugens, 144 h; 500 ppm chemical solution, rice leaf sheaths soaked, third-instar larvae, six days, 25°C; read-out: death rate. The procedure: A 10% by mass emulsion of the presently invented compound prepared according to the above formulation example for an emulsion was diluted with water containing a spreader to prepare a chemical solution having a concentration of 500 ppm. Rice leaf sheaths were soaked in the chemical solution for approximately 10 seconds. After the completion of the soaking operation, the rice leaf sheaths treated with the chemical solution were air-dried, and then put in test tubes. Into each test tube, five third-instar brown rice planthoppers (Nilaparvata lugens) larvae were released, and the test tubes were capped with sponge and accommodated in a thermostatic room at 25°C. Six days after the accommodation, the number of dead brown rice planthoppers individuals in the test tubes were examined, and the death rate was calculated from a calculation formula shown below. The test was carried out in duplicate. [formula]

The subject of test [4] is cat fleas (Ctenocephalides felis). The test can be described thus: whole plant or invertebrate. The note with it: 72 h, read-out: death rate. In short, it runs like this:
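Glass containers (25 cm² inner surface) were coated with 250 µl of a 1000 ppm acetone solution, and the acetone was evaporated to leave a dry film. Five mixed-sex adult fleas were confined per container at 25°C. Mortality was scored after 3 days.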

Take `O=C(Nc1ccc(SC(F)(F)F)cc1)C1=C(O)CC(c2cnc(Cl)c(-c3ccc(F)nc3)c2)NC1=O` (centres unmarked) [2-038]: in the test with Trichostrongylus axei, the “efficacy (%)” value is reported as not below 50%.

For `O=C(Nc1ccc(C(F)(F)F)cn1)C1=C(O)CC(c2cnc(Cl)c(-c3cncc(F)c3)c2)NC1=O` (centres unmarked) [2-056], in the test with Trichostrongylus axei, the “efficacy (%)” value was not below 50%.

For `N#Cc1ccc(NC(=O)C2=C(O)CC(c3cnc(Cl)c(-c4ccc(F)nc4)c3)NC2=O)nc1` (centres unmarked) [2-088], the “efficacy (%)” value in the test on Trichostrongylus axei is recorded as not below 50%.

As for `O=C(Nc1ncc(F)cc1Cl)C1=C(O)CC(c2cnc(Cl)c(-c3ccc(F)nc3)c2)NC1=O` (centres unmarked) [2-103], in the test on Trichostrongylus axei, the “efficacy (%)” value is not below 50%.

In the case of `O=C(Nc1ccc(F)cn1)C1=C(O)CC(c2cnc(Cl)c(-c3ccnc(F)c3)c2)NC1=O` (centres unmarked) [2-115], in the test with Trichostrongylus axei, the “efficacy (%)” value is given as not below 50%.

On to `Cc1cnc(NC(=O)C2=C(O)CC(c3cnc(Cl)c(-c4ccc(F)nc4)c3)NC2=O)nc1` (centres unmarked) [2-120], for which the “efficacy (%)” value in the test on Trichostrongylus axei is not below 50%.

On to `O=C(Nc1cnc(Cl)c(Cl)c1)C1=C(O)CC(c2cnc(Cl)c(-c3ccc(F)nc3)c2)NC1=O` (centres unmarked) [2-126], for which, in the test on Trichostrongylus axei, the “efficacy (%)” value is given as not below 50%.

On to `O=C(Nc1ccc(Cl)nc1Cl)C1=C(O)CC(c2cnc(Cl)c(-c3ccc(F)nc3)c2)NC1=O` (centres unmarked) [2-128], for which the “efficacy (%)” value in the test on Trichostrongylus axei was not below 50%.

As for `Cc1cc(NC(=O)C2=C(O)CC(c3cnc(Cl)c(-c4ccc(F)nc4)c3)NC2=O)cnc1Cl` (centres unmarked) [2-129], the “efficacy (%)” value with Trichostrongylus axei is not below 50%.

Regarding `Cc1cc(Cl)cnc1NC(=O)C1=C(O)CC(c2cnc(Cl)c(-c3ccc(F)nc3)c2)NC1=O` (centres unmarked) [2-130], the “efficacy (%)” value with Trichostrongylus axei is not below 50%.

As to `O=C(Nc1ncc(Cl)nc1Cl)C1=C(O)CC(c2cnc(Cl)c(-c3ccc(F)nc3)c2)NC1=O` (centres unmarked) [2-131], the “efficacy (%)” value in the test with Trichostrongylus axei is not below 50%.

Regarding `O=C(Nc1ccc(Br)c(F)n1)C1=C(O)CC(c2cnc(Cl)c(-c3ccc(F)nc3)c2)NC1=O` (centres unmarked) [2-132], the “efficacy (%)” value in the test on Trichostrongylus axei was not below 50%.

Regarding `O=C(Nc1cnccn1)C1=C(O)CC(c2cnc(Cl)c(-c3ccc(F)nc3)c2)NC1=O` (centres unmarked) [2-133], in the test with Trichostrongylus axei, the “efficacy (%)” value is recorded as not below 50%.

As to `Cc1ccnc(NC(=O)C2=C(O)CC(c3cnc(Cl)c(-c4ccc(F)nc4)c3)NC2=O)c1` (centres unmarked) [2-153], in the test with Trichostrongylus axei, the “efficacy (%)” value was not below 50%.

For `O=C(Nc1ccc(F)cn1)C1=C(O)CC(c2cnc(C(F)(F)F)c(-c3ccc(F)nc3)c2)NC1=O` (centres unmarked) [2-167], the “efficacy (%)” value in the test with Trichostrongylus axei was not below 50%.

In the case of `O=C(Nc1ccc(Cl)cn1)C1=C(O)CC(c2cnc(C(F)(F)F)c(-c3ccc(F)nc3)c2)NC1=O` (centres unmarked) [2-169], the “efficacy (%)” value in the test on Trichostrongylus axei is not below 50%.

As to `O=C(Nc1ccc(Cl)nc1)C1=C(O)CC(c2cnc(C(F)(F)F)c(-c3ccc(F)nc3)c2)NC1=O` (centres unmarked) [2-170], in the test on Trichostrongylus axei, the “efficacy (%)” value is listed as not below 50%.

In the case of `Cc1ccc(NC(=O)C2=C(O)CC(c3cnc(C(F)(F)F)c(-c4ccc(F)nc4)c3)NC2=O)nc1` (centres unmarked) [2-171], in the test on Trichostrongylus axei, the “efficacy (%)” value is not below 50%.

As to `Cn1ccc(NC(=O)C2=C(O)CC(c3cnc(C(F)(F)F)c(-c4ccc(F)nc4)c3)NC2=O)n1` (centres unmarked) [2-172], the “efficacy (%)” value in the test with Trichostrongylus axei was not below 50%.

Consider `O=C(Nc1ccc(Br)cn1)C1=C(O)CC(c2cnc(C(F)(F)F)c(-c3ccc(F)nc3)c2)NC1=O` (centres unmarked) [2-177], for which the “efficacy (%)” value in the test with Trichostrongylus axei is given as not below 50%.

In the case of `O=C(Nc1ccc(C(F)(F)F)cn1)C1=C(O)CC(c2cnc(C(F)(F)F)c(-c3ccc(F)nc3)c2)NC1=O` (centres unmarked) [2-179], in the test with Trichostrongylus axei, the “efficacy (%)” value is not below 50%.

Regarding `O=C(Nc1ncc(Cl)cc1F)C1=C(O)CC(c2cnc(C(F)(F)F)c(-c3ccc(F)nc3)c2)NC1=O` (centres unmarked) [2-181], the “efficacy (%)” value in the test with Trichostrongylus axei is recorded as not below 50%.

As for `O=C(Nc1ccc(Cl)cn1)C1=C(O)CC(c2cnc(Cl)c(-c3ccc(F)cc3)c2)NC1=O` (centres unmarked) [2-220], the “efficacy (%)” value in the test with Trichostrongylus axei is listed as not below 50%.

For `N#Cc1ccc(NC(=O)C2=C(O)CC(c3nc(-c4ccnc(F)c4)no3)NC2=O)cc1` (centres unmarked) [3-071], the mortality at 500 µg/mL in test [1], in test [2] and in test [3] was not below 90% throughout. For the same molecule, in test [4], the mortality at 10 µg/cm2 is not below 50%.

Regarding `O=C(Nc1cc(F)ccn1)C1=C(O)CC(c2nc(-c3ccc(F)c(Br)c3)no2)NC1=O` (centres unmarked) [3-146], the mortality at 500 µg/mL in test [1], in test [2] and in test [3] was not below 90% each time. Moreover, in test [4], the mortality at 10 µg/cm2 was not below 50%.

As to `O=C(Nc1cc(Cl)ccn1)C1=C(O)CC(c2nc(-c3ccc(F)cc3F)no2)NC1=O` (centres unmarked) [3-155], the mortality at 500 µg/mL in test [1], in test [2] and in test [3] was not below 90% each time. Besides, the mortality at 10 µg/cm2 in test [4] is not below 50%.

Consider `O=C(Nc1ccc(F)cc1F)C1=C(O)CC(c2nc(-c3ccc(F)cc3F)no2)NC1=O` (centres unmarked) [3-157], for which the mortality at 500 µg/mL in test [1], in test [2] and in test [3] was not below 90% throughout. The mortality at 10 µg/cm2 in test [4] is not below 50%.

As for `O=C(Nc1ccc(F)c(F)c1)C1=C(O)CC(c2nc(-c3ccc(F)cc3F)no2)NC1=O` (centres unmarked) [3-161], the mortality at 500 µg/mL in test [1], in test [2] and in test [3] was not below 90% throughout. Also, the mortality at 10 µg/cm2 in test [4] was not below 50%.

Regarding `Cc1ccc(NC(=O)C2=C(O)CC(c3nc(-c4ccc(F)cc4F)no3)NC2=O)nc1` (centres unmarked) [3-175], the mortality at 500 µg/mL in test [1], in test [2] and in test [3] was not below 90% in each case. Also, the mortality at 10 µg/cm2 in test [4] is not below 50%.

As to `Cc1ccnc(NC(=O)C2=C(O)CC(c3nc(-c4ccncc4C)no3)NC2=O)c1` (centres unmarked) [3-176], the mortality at 500 µg/mL in test [1], in test [2] and in test [3] was not below 90% each time. For the same molecule, in test [4], the mortality at 10 µg/cm2 is not below 50%.

With `O=C(Nc1cccnc1)C1=C(O)CC(c2nc(-c3ccc(F)cc3F)no2)NC1=O` (centres unmarked) [3-177], the mortality at 500 µg/mL in test [1], in test [2] and in test [3] was not below 90% in each case. For the same molecule, the mortality at 10 µg/cm2 in test [4] is not below 50%.

As to `O=C(Nc1ccccn1)C1=C(O)CC(c2nc(-c3ccc(F)cc3)no2)NC1=O` (centres unmarked) [3-184], the mortality at 500 µg/mL in test [1], in test [2] and in test [3] was not below 90% in each case. Moreover, the mortality at 10 µg/cm2 in test [4] is not below 50%.

`O=C(Nc1ccccn1)C1=C(O)CC(c2nc(-c3cccc(F)c3)no2)NC1=O` (centres unmarked) [3-185]: the mortality at 500 µg/mL in test [1], in test [2] and in test [3] was not below 90% each time. For the same molecule, the mortality at 10 µg/cm2 in test [4] was not below 50%.

Consider `O=C(Nc1cc(F)ccn1)C1=C(O)CC(c2nc(-c3ccns3)no2)NC1=O` (centres unmarked) [3-227], for which the mortality at 500 µg/mL in test [1], in test [2] and in test [3] was not below 90% throughout. For the same molecule, in test [4], the mortality at 10 µg/cm2 is not below 50%.

For `O=C(Nc1ncccc1Br)C1=C(O)CC(c2nc(-c3cnccc3F)no2)NC1=O` (centres unmarked) [3-233], the mortality at 500 µg/mL in test [1], in test [2] and in test [3] was not below 90% each time. Besides, in test [4], the mortality at 10 µg/cm2 is not below 50%.

With `O=C(Nc1cc(F)ccn1)C1=C(O)CC(c2nc(-c3cscc3Cl)no2)NC1=O` (centres unmarked) [3-234], the mortality at 500 µg/mL in test [1], in test [2] and in test [3] was not below 90% each time. The mortality at 10 µg/cm2 in test [4] is not below 50%.

Turning to `O=C(Nc1cc(F)ccn1)C1=C(O)CC(c2nc(-c3ccsc3Cl)no2)NC1=O` (centres unmarked) [3-235], the mortality at 500 µg/mL in test [1], in test [2] and in test [3] was not below 90% throughout. Also, in test [4], the mortality at 10 µg/cm2 was not below 50%.

For `O=C(Nc1cccc(F)n1)C1=C(O)CC(c2nc(-c3ccncc3F)no2)NC1=O` (centres unmarked) [3-238], the mortality at 500 µg/mL in test [1], in test [2] and in test [3] was not below 90% each time. Moreover, the mortality at 10 µg/cm2 in test [4] is not below 50%.

Consider `O=C(Nc1cccc(F)n1)C1=C(O)CC(c2nc(-c3ccncc3Cl)no2)NC1=O` (centres unmarked) [3-239], for which the mortality at 500 µg/mL in test [1], in test [2] and in test [3] was not below 90% each time. In addition, the mortality at 10 µg/cm2 in test [4] is not below 50%.

For the molecule `O=C(Nc1ccccn1)C1=C(O)CC(c2nc(-c3snc(Cl)c3Cl)no2)NC1=O` (centres unmarked) [3-263], the mortality at 500 µg/mL in test [1], in test [2] and in test [3] was not below 90% throughout. The mortality at 10 µg/cm2 in test [4] is not below 50%.

Take `O=C(Nc1ccc(F)cn1)C1=C(O)CC(c2nc(-c3cnc(C(F)(F)F)s3)no2)NC1=O` (centres unmarked) [3-264]: the mortality at 500 µg/mL in test [1], in test [2] and in test [3] was not below 90% throughout. For the same molecule, the mortality at 10 µg/cm2 in test [4] is not below 50%.

For the origin of these results see EP4582413A1, “ARYLTETRAHYDROPYRIDINE COMPOUND AND PEST CONTROL AGENT” (priority 2022, dated 2024).
